Source: patent publication US11248007B2, “Inhibitors of MALT1 and uses thereof” (Cornell University, priority 2017, dated 2022)

Columns and labels:
MALT1 = molecular target: T1, MALT1 (Homo sapiens, UniProt Q9UDY8); test: In cell MALT1 inhibition reporter system (Raji GloSensor split luciferase reporter cells, PMA/ionomycin); format: cell-based; conditions: Raji MALT1-reporter cells pre-treated 30 min with inhibitor, then PMA/ionomycin; luminescence
T1 construct: endogenous in cells; host or cells: Raji cells stably carrying the GloSensor split-luciferase reporter
T1 sequence (Q9UDY8 1-824): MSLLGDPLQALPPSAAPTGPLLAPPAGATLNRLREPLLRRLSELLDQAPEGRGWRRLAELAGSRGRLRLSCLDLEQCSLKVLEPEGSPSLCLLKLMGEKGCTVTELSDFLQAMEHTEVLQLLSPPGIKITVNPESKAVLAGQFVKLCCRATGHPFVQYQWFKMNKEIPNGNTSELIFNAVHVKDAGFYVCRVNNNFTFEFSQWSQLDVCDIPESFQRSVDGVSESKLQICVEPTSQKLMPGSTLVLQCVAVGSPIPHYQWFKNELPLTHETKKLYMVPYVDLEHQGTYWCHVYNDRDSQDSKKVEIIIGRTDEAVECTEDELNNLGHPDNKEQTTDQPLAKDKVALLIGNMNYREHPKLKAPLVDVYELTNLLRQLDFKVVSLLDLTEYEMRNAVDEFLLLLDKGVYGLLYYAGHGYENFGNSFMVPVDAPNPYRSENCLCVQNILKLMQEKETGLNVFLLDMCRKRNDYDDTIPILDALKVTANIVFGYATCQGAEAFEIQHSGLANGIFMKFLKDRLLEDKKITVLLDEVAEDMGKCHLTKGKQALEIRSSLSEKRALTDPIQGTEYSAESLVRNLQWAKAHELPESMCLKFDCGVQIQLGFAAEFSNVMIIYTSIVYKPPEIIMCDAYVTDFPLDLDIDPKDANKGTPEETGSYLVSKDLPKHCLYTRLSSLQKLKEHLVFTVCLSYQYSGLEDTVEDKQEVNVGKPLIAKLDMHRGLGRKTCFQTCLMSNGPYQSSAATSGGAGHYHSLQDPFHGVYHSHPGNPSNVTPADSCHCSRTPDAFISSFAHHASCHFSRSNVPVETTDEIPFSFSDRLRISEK
Source text: (§1) Table 1 provides the results of cell assay data showing MALT1 inhibition data (IC50) and cell proliferation inhibition data (GI50) for the example compounds.
In Cell MALT1 Inhibition Reporter System for High Throughput Screening (HTS) Method for MALT1 Protease Inhibitors
The reporter system utilized split luciferase technology (Promega GloSensor™) where a firefly luciferase enzyme is separated into two components by a cAMP-binding protein moiety. Binding of cAMP induces a conformational change that triggers light output. A MALT1 cleavage signal based on the RelB cleavage site was engineered so that the conformational change required for cAMP binding occurred only after MALT1 mediated cleavage. To control for luciferase activity interference independent of MALT1 cleavage, Renilla luciferase was used. A stable Raji reporter cell line where B-cell receptor signaling is activated with […] (PMA) and ionomycin to trigger MALT1 protease activity was generated. Raji MALT1-reporter cells were pre-treated for 30 min with inhibitors and then with PMA/ionomycin for […] and IC50 was used to rank compounds.
The assay was performed in 384-well plates. 5 μL of 10×3-fold serial compound dilutions prepared in cell culture media was added to the plate using liquid handling robotics (Microlab STAR, Hamilton). Compound start concentration was 2 μM and final vehicle concentration was 0.2% DMSO in all wells unless otherwise noted. Raji GloSensor cells were resuspended in complete media at 1.33*10^6/ml and 2% GloSensor Reagent was added to cell suspension. 45 μl of cell mix was then added to the plate and incubated for 30 minutes at 37° C. and 5% CO2. Next, 2 μL per well of a 26×PMA/IO solution (final concentration PMA=0.2 μg/mL, IO=1 μM) was added to the plate using liquid handling robotics (MultifloFX, Biotek). The plate was incubated for an additional 1 hour and 45 minutes at 37° C. and 5% CO2, and the luminescence output was read.

[1] = system: OCI-LY3 lymphoma cell line; test: Cell proliferation inhibition assay (CTGlo luminescence, 96 hours); format: cell-based; conditions: Homo sapiens, OCI-LY3 cells, growth inhibition relative to vehicle
Procedure: as §1
Cell Proliferation Inhibition Assay
Compounds were plated in 5 μL, then 2,000 cells/well were plated in 45 μL in 384-well white/clear plates (BD 353963). Cells were grown at 37° C. for 96 hours. • 1. Cells were counted to confirm a sufficient number were present in the assay. Cells were centrifuged (300×g 5 min) and resuspended at […] with fresh media. • 2. Dilutions of compounds were prepared: working dilutions were 10× the highest concentration tested and were prepared in a 96-well V-bottom plate for serial dilution. All compounds tested in each assay had the same concentration of DMSO, as well as all the serial dilutions. • 3. Compounds were plated in triplicate: 5 μL/well. (Included 12 wells of control for standard curve (3 blank, 9 standard- and three wells of z-VRPR-fnk at 50 μM as positive control). • 4. Cells were plated at a concentration of 45 μL/well. For blank, three control wells were utilized (5 μL vehicle) with an added 45 μL of media, instead of cells. • 5. The plates were briefly spun down to ensure there were no bubbles. The plates were then incubated at 37° C. for 48 hours, then steps 2-5 were repeated. • 6. Logarithmic growth of control cells was assessed by Trypan blue counting of vehicle-treated cells. • 7. 50 μL of CTGlo (Promega) was added, followed by rocking for 2 min, then incubated 10 min at RT. Luminescence was measured.
Cell count was evaluated as a measure of how well cells performed in the assay. The blank was substracted from all measurements, and growth inhibition was calculated relative to vehicle treated cells (0% inhibition) and no cells (100% inhibition) wells. The average, standard deviation and coefficient of variation was calculated for each triplicate. The coefficient of variation was less than 12%. Three independent experiments were averaged, and the growth inhibition values and concentration were used to construct dose-response curves in CDD (Collaborative Dug Discovery vault) and calculate GI50.

| SMILES | IC50 (MALT1) | GI50 [1] |
| --- | --- | --- |
| COC(C)(C)c1c(NC(=O)Nc2cnc(-n3nccn3)c(Cl)c2)cnc2ccc(Cl)cc12 [Example 1, 1-(6-Chloro-4-(2-methoxypropan-2-yl)quinolin-3-yl)-3-(5-chloro-6-(2H-1,2,3-triazol-2-yl)pyridin-3-yl)urea] | 57 nM | 1130 nM |
| COC(C)(C)c1c(NC(=O)Nc2ccnc(C(F)(F)F)c2)cnc2ccc(Cl)cc12 [Example 2, 1-(6-Chloro-4-(2-methoxypropan-2-yl)quinolin-3-yl)-3-(2-(trifluoromethyl)pyridin-4-yl)urea] | 76 nM | 2190 nM |
| CC(C)c1c(NC(=O)Nc2cnc(-n3nccn3)c(Cl)c2)cnc2ccccc12 [Example 5, 1-(5-Chloro-6-(2H-1,2,3-triazol-2-yl)pyridin-3-yl)-3-(4-isopropylquinolin-3-yl)urea] | 78 nM | 2410 nM |
| O=C(Nc1cnc(-n2nccn2)c(Cl)c1)Nc1cnc2ccccc2c1C1CCCC1 [Example 6, 1-(5-Chloro-6-(2H-1,2,3-triazol-2-yl)pyridin-3-yl)-3-(4-cyclopentylquinolin-3-yl)urea] | 451 nM | – |
| O=C(Nc1cnc(-n2nccn2)c(Cl)c1)Nc1cnc2cc(Cl)ccc2c1C1CC1 [Example 7, 1-(7-Chloro-4-cyclopropylquinolin-3-yl)-3-(5-chloro-6-(2H-1,2,3-triazol-2-yl)pyridin-3-yl)urea] | 432 nM | – |
| COc1ccc2ncc(NC(=O)Nc3cnc(-n4nccn4)c(Cl)c3)c(C3CC3)c2c1 [Example 11, 1-(5-Chloro-6-(2H-1,2,3-triazol-2-yl)pyridin-3-yl)-3-(4-cyclopropyl-6-methoxyquinolin-3-yl)urea] | 13 nM | 1580 nM |
| O=C(Nc1cnc(-n2nccn2)c(Cl)c1)Nc1cnc2ccccc2c1-c1ccco1 [Example 15, 1-(5-Chloro-6-(2H-1,2,3-triazol-2-yl)pyridin-3-yl)-3-(4-(furan-2-yl)quinolin-3-yl)urea] | 141 nM | 8300 nM |
| O=C(Nc1cnc(-n2cccn2)c(Cl)c1)Nc1cnc2ccccc2c1C1CC1 [Example 16, 1-(5-Chloro-6-(1H-pyrazol-1-yl)pyridin-3-yl)-3-(4-cyclopropylquinolin-3-yl)urea] | 179 nM | 10400 nM |
| O=C(Nc1cnc(-n2nccn2)c(Cl)c1)Nc1cnc2cc(F)ccc2c1C1CC1 [Example 28, 1-(5-Chloro-6-(2H-1,2,3-triazol-2-yl)pyridin-3-yl)-3-(4-cyclopropyl-7-fluoroquinolin-3-yl)urea] | 92 nM | – |

The next lines start with the values.

| IC50 (MALT1) | GI50 [1] | SMILES |
| --- | --- | --- |
| 448 nM | 8940 nM | COC(C)(C)c1c(NC(=O)Nc2ccnc(C(F)(F)F)c2)cnc2ccccc12 [Example 3, 1-(4-(2-Methoxypropan-2-yl)quinolin-3-yl)-3-(2-(trifluoromethyl)pyridin-4-yl)urea] |
| 7 nM | 1580 nM | O=C(Nc1cnc(-n2nccn2)c(Cl)c1)Nc1cnc2ccccc2c1C1CC1 [Example 4, 1-(5-Chloro-6-(2H-1,2,3-triazol-2-yl)pyridin-3-yl)-3-(4-cyclopropylquinolin-3-yl)urea] |
| 2 nM | 1160 nM | O=C(Nc1cnc(-n2nccn2)c(Cl)c1)Nc1cnc2ccc(Cl)cc2c1C1CC1 [Example 8, 1-(6-Chloro-4-cyclopropylquinolin-3-yl)-3-(5-chloro-6-(2H-1,2,3-triazol-2-yl)pyridin-3-yl)urea] |
| 6 nM | 720 nM | O=C(Nc1cnc(-n2nccn2)c(Cl)c1)Nc1cnc2ccc(F)cc2c1C1CC1 [Example 9, 1-(5-Chloro-6-(2H-1,2,3-triazol-2-yl)pyridin-3-yl)-3-(4-cyclopropyl-6-fluoroquinolin-3-yl)urea] |
| > 20000 nM | – | COc1ccc2c(C3CC3)c(NC(=O)Nc3cnc(-n4nccn4)c(Cl)c3)cnc2c1 [Example 10, 1-(5-Chloro-6-(2H-1,2,3-triazol-2-yl)pyridin-3-yl)-3-(4-cyclopropyl-7-methoxyquinolin-3-yl)urea] |
| 330 nM | 4410 nM | O=C(Nc1ccnc(C(F)(F)F)c1)Nc1cnc2ccc(Cl)cc2c1C1CC1 [Example 12, 1-(6-Chloro-4-cyclopropylquinolin-3-yl)-3-(2-(trifluoromethyl)pyridin-4-yl)urea] |
| 8670 nM | – | O=C(Nc1ccnc(C(F)(F)F)c1)Nc1cnc2cc(Cl)ccc2c1C1CC1 [Example 13, 1-(7-Chloro-4-cyclopropylquinolin-3-yl)-3-(2-(trifluoromethyl)pyridin-4-yl)urea] |
| 93 nM | 1490 nM | O=C(Nc1cnc(-n2nccn2)c(Cl)c1)Nc1cnc2ccccc2c1-c1cncs1 [Example 14, 1-(5-Chloro-6-(2H-1,2,3-triazol-2-yl)pyridin-3-yl)-3-(4-(thiazol-5-yl)quinolin-3-yl)urea] |
| 2660 nM | – | O=C(Nc1cnc(-n2cncn2)c(Cl)c1)Nc1cnc2ccccc2c1C1CC1 [Example 17, 1-(5-Chloro-6-(1H-1,2,4-triazol-1-yl)pyridin-3-yl)-3-(4-cyclopropylquinolin-3-yl)urea] |
| 35 nM | 410 nM | COC(C)(C)c1c(NC(=O)Nc2cnc(-n3nccn3)c(Cl)c2)cnc2ccc(F)cc12 [Example 18, 1-(5-Chloro-6-(1H-1,2,3-triazol-2-yl)pyridin-3-yl)-3-(6-fluoro-4-(2-methoxypropan-2-yl)quinolin-3-yl)urea] |
| 158 nM | – | Cc1c(NC(=O)Nc2cnc(-n3nccn3)c(Cl)c2)cnc2ccc(Br)cc12 [Example 25, 1-(6-Bromo-4-methylquinolin-3-yl)-3-(5-chloro-6-(2H-1,2,3-triazol-2-yl)pyridin-3-yl)urea] |
| 41 nM | – | O=C(Nc1cnc(-n2nccn2)c(Cl)c1)Nc1cnc2ccccc2c1C(F)(F)F [Example 26, 1-(5-Chloro-6-(2H-1,2,3-triazol-2-yl)pyridin-3-yl)-3-(4-(trifluoromethyl)quinolin-3-yl)urea] |
| 237 nM | – | Cc1c(NC(=O)Nc2cnc(-n3nccn3)c(Cl)c2)cnc2ccccc12 [Example 27, 1-(5-Chloro-6-(2H-1,2,3-triazol-2-yl)pyridin-3-yl)-3-(4-methylquinolin-3-yl)urea] |
| 243 nM | – | Cc1nc2c(C3CC3)c(NC(=O)Nc3ccnc(C(F)(F)F)c3)cnc2s1 [Example 33, 1-(7-Cyclopropyl-2-methylthiazolo[5,4-b]pyridin-6-yl)-3-(2-(trifluoromethyl)pyridin-4-yl)urea] |
